Each structure is given as a SMILES string.

The test relates to S. aureus. In words: MIC, CLSI microdilution. Format: cell-based. The note with it: 2% solution serially diluted.

On to `[H]/N=C(\N/C(=N/[H])NCCCCCCNC(=N)NC(=N)Nc1ccc(Cl)cc1)Nc1ccc(Cl)cc1` [Chlorhexidine, chlorhexidine gluconate], for which the “Chlorhexidine MIC” value came out at 19.6 μg/ml chlorhexidine.

Source of the values: patent US12673140B2, “Bladder, ureter, kidney, urethra, prostate and catheter anti-microbial, and biofilm prevention, reduction and treatment” (UHI, LLC, priority 2019, dated 2026).
